Assay results reported in patent US20240131168A1, “NAPHTHALENE RING-CONTAINING COMPOUND, PHARMACEUTICAL COMPOSITION CONTAINING SAME, AND USE THEREOF” (JIANGSU YAHONG MEDITECH CO., LTD., priority 2021, published 2024).

Tests used:
MCF-7 = experiment: CellTiter-Glo cell proliferation inhibition, MCF-7 (Effect Example 2); assay type: cell-based; settings: Homo sapiens, MCF7, 144 h, MCF-7 (CTG), 6 days, starting concentration 10 μM; for inhibition at up to 10 µM: read-out: IH % max (maximum inhibition percentage)
Summary of the method: (§1)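 MCF-7, TamR-MCF-7, and CRISPR-edited MCF-7 ER D538G or Y537S cells were seeded at 1,000 or 2,000 cells/well in EMEM and cultured 24 h. They were then exposed to a 4-fold, 10-point series (top 10 µM before addition to wells) for 6 days or 72 h at 37 °C. CellTiter-Glo luminescence gave IC50 and maximum % inhibition.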

TamR-MCF-7 = experiment: CellTiter-Glo cell proliferation inhibition, TamR-MCF-7; assay type: cell-based; settings: 144 h, TamR-MCF-7 (CTG), 6 days, starting concentration 10 μM; for inhibition at up to 10 µM: read-out: IH % max (maximum inhibition percentage)
Summary of the method: as §1

MDA-MB-468 = experiment: CellTiter-Glo cell proliferation inhibition, MDA-MB-468; assay type: cell-based; settings: Homo sapiens, 144 h, MDA-MB-468 (CTG), 6 days, starting concentration 10 μM; for inhibition at up to 10 µM: read-out: IH % max (maximum inhibition percentage)
estrogen receptor = target: T1, estrogen receptor (Homo sapiens, UniProt P03372); settings: background section; cited from earlier work
T1 sequence (P03372 1-595): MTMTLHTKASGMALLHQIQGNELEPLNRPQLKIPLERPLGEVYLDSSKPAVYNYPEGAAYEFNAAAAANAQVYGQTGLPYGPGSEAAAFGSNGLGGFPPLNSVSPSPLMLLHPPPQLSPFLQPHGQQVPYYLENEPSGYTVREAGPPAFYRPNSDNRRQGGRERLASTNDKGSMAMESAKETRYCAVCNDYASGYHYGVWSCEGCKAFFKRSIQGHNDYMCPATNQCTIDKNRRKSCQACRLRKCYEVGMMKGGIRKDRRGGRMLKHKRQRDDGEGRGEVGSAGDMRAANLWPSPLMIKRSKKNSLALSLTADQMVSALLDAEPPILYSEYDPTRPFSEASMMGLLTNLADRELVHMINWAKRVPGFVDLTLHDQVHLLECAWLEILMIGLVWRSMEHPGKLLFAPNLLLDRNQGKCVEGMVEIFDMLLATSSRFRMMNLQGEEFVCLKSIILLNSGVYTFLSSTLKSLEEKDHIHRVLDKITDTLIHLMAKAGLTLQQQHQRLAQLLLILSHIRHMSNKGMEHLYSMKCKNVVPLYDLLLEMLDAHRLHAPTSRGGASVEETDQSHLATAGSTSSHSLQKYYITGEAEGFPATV

MCF-7 ER^D538G = experiment: CellTiter-Glo cell proliferation inhibition, MCF-7 ER^D538G; assay type: cell-based; settings: Homo sapiens, MCF7, 144 h, MCF-7 ER^D538G (CTG), 6 days, starting concentration 10 μM; for inhibition at up to 10 µM: read-out: IH % max (maximum inhibition percentage)
Summary of the method: as §1

MCF-7 ER^Y537S = experiment: CellTiter-Glo cell proliferation inhibition, MCF-7 ER^Y537S; assay type: cell-based; settings: Homo sapiens, MCF7, 144 h, MCF-7 ER^Y537S (CTG), 6 days, starting concentration 10 μM; for inhibition at up to 10 µM: read-out: IH % max (maximum inhibition percentage)
Summary of the method: as §1

MDA-MB-231 = experiment: CellTiter-Glo cell proliferation inhibition, MDA-MB-231; assay type: cell-based; settings: Homo sapiens, 144 h, MDA-MB-231 (CTG), 6 days, starting concentration 10 μM; for inhibition at up to 10 µM: read-out: IH % max (maximum inhibition percentage)
From the text: 1. Cell line • (1) Breast cancer cell lines and their culture media: • MCF-7 (ATCC; Cat. No.: HTB-22), a Luminal A breast cancer cell; • TamR-MCF-7 (ATCC; Cat. No.: CRL-3435), a breast cancer cell; • MCF-7 ER^D538G: a Luminal A breast cancer cell obtained by constructing MCF-7 (ATCC; Cat. No.: HTB-22) using CRISPR-Cas9 gene editing technology; • MCF-7 ER^Y537S: a Luminal A breast cancer cell obtained by constructing MCF-7 (ATCC; Cat. No.: HTB-22) using CRISPR-Cas9 gene editing technology; • MDA-MB-231: (manufacturer: Nanjing CoBioer Biosciences Co., Ltd.), a triple-negative breast cancer cell; • MDA-MB-468: (manufacturer: Nanjing CoBioer Biosciences Co., Ltd.), a triple-negative breast cancer cell.
Herein, the culture medium of MCF-7, TamR-MCF-7, MCF-7 ER^D538G, and MCF-7 ER^Y537S was EMEM; • the culture medium of MDA-MB-231 and MDA-MB-468 was DMEM.
2. Reagents • Culture medium EMEM (Gibco, 1964507) • Culture medium DMEM (Gibco, 12430-054) • Fetal bovine serum (Gibco, 10091148) • Penicillin-streptomycin double antibody (Gibco, S110JV) • DPBS (Gibco, 14190-144) • CellTiter-Glo® assay kit (Promega, G7573) • Trypsin (0.25%) (Gibco, 25200-056) • DMSO (Sigma, D2650)
3. Instruments • Biosafety cabinet (AIRTECH, BSC-1300A II) • Automated cell counter (Life Technologies, countess II) • Multifunctional microplate reader (Biotek, H1FM) • Orbital shaker (Hangzhou Allsheng Instruments Co., Ltd., OS-100) • XLFIT 5.3 (Inforstack Shanghai Co., Ltd.)
For this test method, the following experiments were performed in a biosafety cabinet, with the specific steps as follows: • (1) Cells were inoculated in a 96-well plate. One day later, the previous culture medium was poured off, 5 mL of DPBS was added to wash the cells, and then DPBS was pipetted and discarded. An appropriate amount of trypsin was then added. The plate was digested in a 37° C., 5% CO2 cell incubator for about 2 to 5 minutes and then taken out. Anew corresponding culture medium was added, and pipetted up and down to resuspend the cells evenly. The cells were then counted using an automated cell counter. • (2) Each cell was inoculated in columns 1 to 11 of a 96-well plate (Corning, Cat. No.: 3610) at a density of 1,000 or 2,000 cells per well in 100 μL of culture medium, and 100 μL of the corresponding culture medium without cells was added to the wells in column 12. The plate was then placed in a 37° C., 5% CO2 incubator for 24 hours. • (3) The compound of the present disclosure and the control drug fulvestrant (Selleck; Cat. No.: S1191) were then 4-fold serially diluted to 10 dose points starting at 10 μM. 10 μL of the serially diluted compound was pipetted and added to 100 μL of cells in columns 1 to 10, and 10 μL of the corresponding culture medium containing 0.33 v % DMSO was added to both columns 11 and 12. The plate was incubated in a 37° C., 5% CO2 incubator for 6 days or 72 hours (Note: column 11 was used as a MAX well with cells but without compound; column 12 was used as a MIN well without cells […]). • (4) The cell viability detection reagent in the CellTiter-Glo® assay kit was then added to the 96-well plate at 50 μL per well according to the instructions, and shaken on an orbital shaker in the dark for 5 to 10 minutes. The cell viability was then measured using a multifunctional microplate reader. Finally, the inhibition of cell proliferation by the compound of the present disclosure was plotted by XLFIT software, and the IC50 value (half inhibitory concentration) and the IH % max (maximum inhibition percentage) of the compound of the present disclosure were calculated.
Compounds D64 to D69 were tested for MDA-MB-231 (CTG) and MDA-MB-468 (CTG) with an incubation time of 72 hours in the incubator.

SMILES: C[C@]12CC[C@@H]3c4ccc(O)cc4C[C@@H](CCCCCCCCC[S+]([O-])CCCC(F)(F)C(F)(F)F)[C@H]3[C@@H]1CC[C@@H]2O (some centres unmarked) [Fulvestrant, fulvestrant, reference compound]
- IC50 (MCF-7): 1.6 nM
- inhibition at up to 10 µM (MCF-7): 80.7%
- IC50 (TamR-MCF-7): 115 nM
- inhibition at up to 10 µM (TamR-MCF-7): 71.8%
- inhibition at up to 10 µM (MDA-MB-468): 39.4%
- maximum protein degradation rate (estrogen receptor): about 61%

SMILES: CS(=O)(=O)c1ccc(-c2ccc3cc(O)ccc3c2Oc2ccc(OCCN3CCN(c4ccc5c(c4)C(=O)N(C4CCC(=O)NC4=O)C5=O)CC3)cc2)cc1 (centres unmarked) [Compound D6, 2-(2,6-dioxopiperidin-3-yl)-5-(4-(2-(4-((6-hydroxy-2-(4-(methylsulfonyl)phenyl)naphthalen-1-yl)oxy)phenoxy)ethyl)piperazin-1-yl)isoindoline-1,3-dione]
- IC50 (MCF-7 ER^D538G): 428 nM
- inhibition at up to 10 µM (MCF-7 ER^D538G): 91%
- IC50 (MCF-7): 133 nM
- inhibition at up to 10 µM (MCF-7): 100%
- inhibition at up to 10 µM (MCF-7 ER^Y537S): 78%
- IC50 (TamR-MCF-7): 331 nM
- inhibition at up to 10 µM (TamR-MCF-7): 90%
- IC50 (MDA-MB-231): 102 nM
- inhibition at up to 10 µM (MDA-MB-231): 100%
- IC50 (MDA-MB-468): 260 nM
- inhibition at up to 10 µM (MDA-MB-468): 98%

SMILES: CS(=O)(=O)c1ccc(-c2ccc3cc(O)ccc3c2Oc2ccc(OCCNCCCCCNc3cccc4c3C(=O)N(C3CCC(=O)NC3=O)C4=O)cc2)cc1 (centres unmarked) [Compound D60, 2-(2,6-dioxopiperidin-3-yl)-4-((5-((2-(4-((6-hydroxy-2-(4-(methylsulfonyl)phenyl)naphthalen-1-yl)oxy)phenoxy)ethyl)amino)pentyl)amino)isoindoline-1,3-dione]
- IC50 (MCF-7 ER^D538G): 977 nM
- inhibition at up to 10 µM (MCF-7 ER^D538G): 96%
- IC50 (MCF-7): 954 nM
- inhibition at up to 10 µM (MCF-7): 82%
- inhibition at up to 10 µM (MCF-7 ER^Y537S): 92%
- inhibition at up to 10 µM (TamR-MCF-7): 50%
- inhibition at up to 10 µM (MDA-MB-231): 96%
- inhibition at up to 10 µM (MDA-MB-468): 51%

SMILES: CN(CCOCCN1CCN(c2ccc3c(c2)CN(C2CCC(=O)NC2=O)C3=O)CC1)CCOc1ccc(Oc2c(-c3ccc(S(C)(=O)=O)cc3)ccc3cc(O)ccc23)cc1 (centres unmarked) [Compound D10, 3-(5-(4-(2-(2-((2-(4-((6-hydroxy-2-(4-(methylsulfonyl)phenyl)naphthalen-1-yl)oxy)phenoxy)ethyl)methylamino)ethoxy)ethyl)piperazin-1-yl)-1-oxoisoindolin-2-yl)piperidine-2,6-dione]
- inhibition at up to 10 µM (MCF-7 ER^D538G): 67%
- inhibition at up to 10 µM (MCF-7): 40%
- inhibition at up to 10 µM (MCF-7 ER^Y537S): 54%
- inhibition at up to 10 µM (TamR-MCF-7): 36%
- inhibition at up to 10 µM (MDA-MB-231): 38%
- inhibition at up to 10 µM (MDA-MB-468): 68%

SMILES: CCN(CCOCCOCCOc1ccc2c(c1)C(=O)N(C1CCC(=O)NC1=O)C2=O)CCOc1ccc(Oc2c(-c3ccc(S(C)(=O)=O)cc3)ccc3cc(O)ccc23)cc1 (centres unmarked) [Compound D24, 2-(2,6-dioxopiperidin-3-yl)-5-(2-(2-(2-(ethyl(2-(4-((6-hydroxy-2-(4-(methylsulfonyl)phenyl)naphthalen-1-yl)oxy)phenoxy)ethyl)amino)ethoxy)ethoxy)ethoxy)isoindoline-1,3-dione]
- IC50 (MCF-7 ER^D538G): 448 nM
- inhibition at up to 10 µM (MCF-7 ER^D538G): 93%
- inhibition at up to 10 µM (MCF-7): 74%
- inhibition at up to 10 µM (MCF-7 ER^Y537S): 94%
- inhibition at up to 10 µM (TamR-MCF-7): 60%
- inhibition at up to 10 µM (MDA-MB-231): 100%
- inhibition at up to 10 µM (MDA-MB-468): 62%

SMILES: CS(=O)(=O)c1ccc(-c2ccc3cc(O)ccc3c2Oc2ccc(OCCN3CCN(c4ccc5c(c4)CN(C4CCC(=O)NC4=O)C5=O)CC3)cc2)cc1 (centres unmarked) [Compound D2, 3-(5-(4-(2-(4-((6-hydroxy-2-(4-(methylsulfonyl)phenyl)naphthalen-1-yl)oxy)phenoxy)ethyl)piperazin-1-yl)-1-oxoisoindolin-2-yl)piperidine-2,6-dione]
- IC50 (MCF-7 ER^D538G): 88.4 nM
- inhibition at up to 10 µM (MCF-7 ER^D538G): 93%
- IC50 (MCF-7): 27.7 nM
- inhibition at up to 10 µM (MCF-7): 100%
- IC50 (MCF-7 ER^Y537S): 968 nM
- inhibition at up to 10 µM (MCF-7 ER^Y537S): 80%
- IC50 (TamR-MCF-7): 37.4 nM
- inhibition at up to 10 µM (TamR-MCF-7): 94%
- IC50 (MDA-MB-231): 5.1 nM
- inhibition at up to 10 µM (MDA-MB-231): 100%
- IC50 (MDA-MB-468): 5.8 nM
- inhibition at up to 10 µM (MDA-MB-468): 99%
